Patent publication US11478527B2, “FGF receptor ligands for treating diabetes and obesity” (Albert Einstein College of Medicine, priority 2015, dated 2022)

Key:
[1] = test system: 8 month old outbred mice; assay: Oral glucose tolerance test after intraparenchymal injection of peptide into the mediobasal hypothalamus; assay type: in vivo
Experimental: A peptide of 13 amino acids ([…]) (SEQ ID NO:4) was synthesized based on the conserved sequences between the FGF8 and FGF17 b splice isoforms and the helical nature of this region of FGF8 based on a published crystal structure. This peptide was injected intraparenchymally into the mediobasal hypothalamus of 8 month old outbred mice. Having been fasted overnight, the mice were subjected to an oral glucose tolerance test (2 mg/g of glucose) using a crossover design to obtain a control condition. […] With aCSF, the median area under the curve for the 3 hour GTT was 43,747 mg-min/dL whereas it was […] with F8b13. Blood glucose concentrations were not different before the glucose load. These FGF derived peptide antagonists are useful as therapeutic agents in diabetes and obesity conditions.

[2] = test system: HFD-fed mice; details: U0126 thirty minutes before FGF19 injection
Experimental: ERK1/2 signaling involved in FGF19-glucose metabolism regulation. […] Mice were treated twice with FGF19 (starting 16 hours after fasting and 6.5 hours apart) and tissues were collected 90 minutes after the last ip injection (2C) Analysis of co-localization between Npy-hrGFP positive neurons (lighter gray) and p-ERK1/2 positive cells (darker gray) in 24 h fasted ob/ob Npy-hrGFP mice following intraperitoneal injections of FGF19. (2D) Quantification of Npy-hrGFP positive neurons that colocalize with pERK1/2 staining in ARC (Bregma −1.7 to −1.9 mm) of ob/ob Npy-hrGFP mice (10 sections from 3 mice were examined in each group). (2E) Representative sections showing absence of co-localization between Pomc-eGFP positive neurons (lighter gray) and p-ERK1/2 positive cells (darker gray) in 24 h fasted ob/ob Pomc-eGFP mice following intraperitoneal injections of FGF19. *P<0.05, ***P<0.005.
It was assessed whether increased ERK1/2 activation could mediate the glucose lowering effect of FGF19.

[3] = test system: AGRP/NPY neurons; assay: Colocalization of phospho-ERK1/2 with Npy-GFP in ARC after intraperitoneal FGF19; assay type: in vivo; details: 24 h fasted Npy-hrGFP ob/ob mice
Experimental: FIG. 2A-2E. ERK1/2 signaling involved in FGF19-glucose metabolism regulation.
The neuronal population targeted by FGF19 was investigated. 24 h fasted Npy-hrGFP transgenic mice deficient in leptin (Npy-hrGFP ob/ob), in which AGRP/NPY neurons in ARC appear GFP+, were injected intraperitoneally with FGF19 and the colocalization between phospho-ERK1/2 and Npy-GFP was analyzed in ARC. […] Overall, the data support that central FGF19 improved glucose metabolism required activation of ERK1/2 signaling and that AGRP/NPY neurons are a likely mediator of FGF19 action.

[4] = test system: hypothalamic AGRP/NPY neurons; details: cited from earlier work
[5] = test system: POMC neurons; assay: Colocalization of phospho-ERK1/2 with Pomc-eGFP in ARC after intraperitoneal FGF19; assay type: in vivo; details: 24 h fasted Pomc-eGFP ob/ob mice
[6] = test system: HFD-fed mice; details: FGF19 injected centrally and peripherally; previously shown (3); cited from earlier work

PNFTQHVREQSLV (peptide fragment based on human sequence) [F8b13]
glucose tolerance compared to the same mice after aCSF ([1]; oral GTT 2 mg/g glucose, overnight fast, crossover design): improved glucose tolerance
median area under the curve for the 3 hour GTT ([1]; oral GTT 2 mg/g glucose, overnight fast, crossover vs aCSF, intraparenchymal injection into mediobasal hypothalamus): 33500 mg·min/dL
blood glucose concentrations before the glucose load ([1]; overnight fasted, vs aCSF): not different

N#CC(=C(/N)Sc1ccccc1N)/C(C#N)=C(\N)Sc1ccccc1N [U0126]
effect of U0126 pre-treatment on the glucose lowering effect of FGF19 [2]: blocked the glucose lowering effect of FGF19

FGF19: endocrine fibroblast growth factor
colocalization of FGF19-induced pERK1/2 staining with NPY-GFP+ neurons in ARC [3]: colocalized with NPY-GFP+ neurons
induction of AGRP and NPY mRNA ([4]; mice fasted overnight): prevented the induction of AGRP and NPY mRNA
ERK1/2 activation in hypothalamic AGRP/NPY neurons ([4]; mouse, in vivo): activated ERK1/2
FOS in hypothalamic AGRP/NPY neurons ([4]; mouse, in vivo): FOS was reduced
effects on POMC neurons ([4]; mouse, in vivo): no effects
colocalization of Pomc-eGFP positive neurons with pERK1/2 staining in ARC [5]: do not colocalize
glucose handling in obese mice (ob/ob) and high fat fed mice [6]: could improve glucose handling
